According to patent US10258033B2 (Eden Research PLC, priority 2005, dated 2019):

What was measured:
[1] = test system: S. aureus; assay: MIC of terpene emulsions and fresh or freeze-dried Baker's YP / SAF Mannan encapsulated terpenes against S. aureus; assay type: cell-based; conditions: for MIC μg/ml terpene, Bakers Freeze Dried / MIC μg/ml terpene, Bakers Fresh: encapsulated in Baker's YP; for MIC μg/ml terpene, SAF Mannan Freeze Dried / MIC μg/ml terpene, SAF Mannan Fresh: encapsulated in SAF Mannan; for MIC μg/ml terpene, Emulsion: not encapsulated
Protocol: The results of a protocol performed to compare the MIC of fresh versus freeze dried hollow glucan particle encapsulated terpene formulations are shown below in Table 13. A simple terpene emulsion was also tested and the results are shown for comparison.

[2] = test system: H. pylori; conditions: cited from earlier work
[3] = Suspension and solution of citral in water; assay type: physicochemical
Description: In one embodiment the terpene component includes one or more terpenes which contain oxygen.

[4] = test system: E. coli; conditions: cited from earlier work

Row | Compound | MIC μg/ml terpene, Bakers Freeze Dried [1] [μg/ml terpene] | MIC μg/ml terpene, Bakers Fresh [1] [μg/ml terpene] | MIC μg/ml terpene, SAF Mannan Freeze Dried [1] [μg/ml terpene] | MIC μg/ml terpene, SAF Mannan Fresh [1] [μg/ml terpene] | MIC μg/ml terpene, Emulsion [1] [μg/ml terpene] | concentration that inhibited the growth of H. pylori in vitro [2] [mg/L] | solution, maximum concentration [3] | stable suspension, maximum concentration [3] | stable suspension of hollow glucan particles incorporating citral ([3]; ppt citral) [ppt] | concentration in growth media that reduced the concentration of E. coli [4] | concentration with bactericidal effect [4] [%]
1 | L-carvone | >0.04 | 0.1 | >0.02 | 0.01 | 3.75 | – | – | – | – | – | –
2 | CC(C)=CCC/C(C)=C/CO [Geraniol] | 0.06 | 0.03 | >0.03 | 0.02 | 0.47 | 2 | – | – | – | – | –
3 | C=CCc1ccc(O)c(OC)c1 [Eugenol] | 0.05 | 0.03 | 0.05 | 0.01 | 0.12 | – | – | – | – | – | –
4 | CC(C)=CCCC(C)=CC=O [Citral, 3,7-dimethyl-2,6-octadien-1-al] | 0.05 | 0.01 | >0.03 | 0.01 | 0.94 | – | up to 500 ppm | up to 2500 ppm | 25 | more than 0.01% | 0.08
